Data from PMC12111648, “New Dimethoxyaryl-Sesquiterpene Derivatives with Cytotoxic Activity Against MCF-7 Breast Cancer Cells: From Synthesis to Topoisomerase I/II Inhibition and Cell Death Mechanism Studies” (International Journal of Molecular Sciences, 2025).
Entries after “also recorded” stand apart in the source; their conditions may differ. Like-named read-outs stand apart in the source and are kept apart here.

What was measured:
[1] = tested on: MCF-7 cells; details: cited from earlier work
[2] = tested on: MCF-7 cells; assay: Mitochondrial membrane potential (rhodamine 123, flow cytometry); type: cell-based, human; details: MCF-7, compounds at respective IC50, 24 h
Protocol: To determine whether the toxic effects of selected sesquiterpenes (10c, 11c, 12c, 13c, and 14c) are due to the production of ROS and subsequent apoptosis, the mitochondrial membrane potential was measured. With this aim, a protocol using rhodamine 123 staining and flow cytometry was established to study the effect of the selected compounds [40]. The accumulation of rhodamine 123 in mitochondria is associated with the maintenance of the electrochemical gradient in mitochondria. Daunorubicin was used as a positive control (C+). The results are presented as the percentage of cells with increased mitochondrial membrane permeability.
Rhodamine 123 (Rho123), a positively charged dye that reacts to voltage changes and enters the mitochondria, was utilized to detect modifications in the mitochondrial membrane potential. The cells were exposed to specific compounds (IC50 values for each compound) for 24 h. Control cells that had not been treated were used as negative control, while cells treated with daunorubicin at a concentration of 1 µM served as the positive control. Following this, the cells were incubated with Rho123 (at a concentration of 1 µM) in darkness for an hour at 37 °C. Afterward, the medium was taken out, and the cells were washed with PBS. The cells were then dissociated using trypsin and collected through centrifugation for 10 min at 1500×g. The supernatant was thrown away, and the cell pellets were resuspended in PBS and analyzed using flow cytometry with the FL1 filter. The results are shown as the percentage of Rho123-stained cells.
Figure 5 The effect of the compound’s treatment on mitochondrial membrane potential. […] The data represent the means ± S.D. of at least three experiments with triplicate samples.

[3] = tested on: caspases-3/7 in MCF-7 cells; assay: Caspase-Glo 3/7 assay; type: cell-based, human; details: MCF-7, 50 μM, 24 h, versus control
Protocol: Since ROS levels were increased in the MCF-7 cancer cell line in response to the compounds, it is important to determine whether this effect is associated with the onset of apoptotic cell death. […] Cells were treated with the selected compounds at 50 μM for 24 h, incubated in situ with the Caspase-Glo 3/7 marker assay, and then analyzed in a luminometer.
The activity of caspase 3/7 in MCF-7 cells treated with the compounds was determined using a Caspase-Glo-3/7 Assay kit from Promega (UK). This assay is a homogenous and luminescent method that measures the activity of caspase-3 and -7, which are essential for apoptosis. MCF-7 cells (1 × 10^4 cells per well) were seeded in a 96-well plate and incubated overnight. The cells were then treated for 24 h with the compounds (50 µM) and a blank as a control. After treatment, the Caspase-Glo® 3/7 reagent was prepared according to the manufacturer’s instructions. Specifically, 100 μL of the reagent was added to 100 μL of culture medium containing the treated cells in each well, and the mixture was incubated for 1 h at room temperature in the dark. Luminescence was then measured using a luminometer (Berthold Sirius Single Tube Luminometer). The fold change in caspase activity was calculated by expressing the average luminescence of each treatment as a fold change with respect to the average luminescence of the negative control.
Figure 6 The effect of the compounds on caspases-3/7 activity in cells from the human breast cancer cell line MCF-7. Caspases-3/7 activity was determined in MCF-7 cells following treatment with the compounds (50 μM) for 24 h. The data are reported as the ratio of activity in treated cells vs. the control (1% ethanol), which were arbitrarily assigned a unitary value. * p < 0.05 versus control cells (Ctrl). The data are reported as the mean values ± S.D. of three different experiments with samples in triplicate.

[4] = tested on: MCF-10 cells; assay: MTT cytotoxicity assay on non-tumoral MCF-10 cells; type: cell-based, human; details: Homo sapiens, MCF10, 48 h incubation, IC50 ± SD, three experiments in triplicate
Protocol: (§1) In this study, we wondered whether semi-synthetic compounds have potential antitumoral properties against BC. Therefore, we were interested in investigating the effect of the compounds on the MCF-7 cell line. Firstly, we studied the effect on cell viability using a colorimetric MTT assay, which was performed to quantify the cytotoxic activity; each compound was evaluated at different concentrations (500−100−20−4−0.8−0.16−0.032−0 µM). Daunorubicin was also used as a positive control for comparison with a reference drug. […] Although the MCF-10 cell line provides a useful selectivity model, it may not fully represent the varying sensitivities of different normal cell types within a multicellular organism. The SI value indicates the ratio of toxicity in mammalian host cells to that in a tumoral cell. The data obtained in response to different concentrations of compounds were used to calculate the IC50 and corresponding SI values, as shown in Table 1.
(§2) The American Type Culture Collection (Rockville, MD, USA) supplied the following experimental cell lines: MCF-7, a human breast cancer cell line, and MCF-10A, a human epithelial breast cell line (ATCC N° CRL-10317). Both cell lines were grown in DMEM-F12 medium containing 10% FCS, 100 U/mL penicillin, 100 μg/mL streptomycin, and 1 mM glutamine. The cells were seeded at a concentration of 100 μL per well at a plating density of 3 × 10^3 cells/well and incubated for 24 h at 37 °C under 5% humidified CO2 to enable attachment. The cells were then treated with varying concentrations of synthesized compounds for […] under the same conditions. The compound stock solution was prepared in DMSO, and the final concentration of DMSO was kept at 0.1%. Control cultures were treated with only 1% ethanol.
(§3) Cells from the MCF-7 and MCF-10 lines were seeded into 96-well plates at a density of 1 × 10^4 per well. After 24 h, the compounds were added at increasing concentrations (500–100–20-4–0.8–0.16–0.032–0 µM), and the cells were incubated at 37 °C in a humidified 5% CO2/95% air mixture for 48 h. Following incubation, the cells were washed twice with PBS, and 100 μL of 0.5 mg/mL MTT solution was added to each well. After 2 h of incubation, the MTT solution was removed, and the formazan crystals were dissolved in 50 μL of DMSO per well. Absorbance was then measured at 570 nm using a microplate ELISA reader. IC50 values, determined from three independent experiments conducted in triplicate, were calculated using SigmaPlot® software (version 11.0). The selectivity index (SI) of each compound in each cell line was determined by calculating the ratio of the IC50 values for MCF-10 and cancer cell lines. Compounds were considered selective if SI values were equal to or greater than 3 [46].

[5] = tested on: MCF-7 cells; assay: Intracellular ROS generation (DCFH2-DA, flow cytometry); type: cell-based, human; details: MCF-7, compounds at respective IC50, 24 h, versus control
Protocol: An increase in intracellular ROS may be one of the factors that contribute to the cytotoxicity of certain compounds in cancer cell lines. In fact, ROS and mitochondrial damage are often associated with the induction of cell death. […] DCF fluorescence was then measured by flow cytometry. The difference in the percentage of DCF-positive cells between treated and control cells was used to indicate an increase in intracellular ROS, as shown in Figure 4.
Reactive oxygen species (ROS) production was measured using flow cytometry. Cells were treated with compounds (each with respective IC50 values) for 24 h, with untreated cells serving as the negative control and cells treated with 1 µM daunorubicin as the positive control. Following the treatment, intracellular ROS levels were visualized after incubation with 2′,7′-dichlorodihydro-fluorescein diacetate (DCFH2-DA) at a final concentration of 10 μM for the last 30 min of the treatment period. After incubation, the cells were washed with PBS, trypsinized, and centrifuged, and the resulting pellet was resuspended in PBS and immediately examined by flow cytometry.
Figure 4 The effect of the compound’s treatment on intracellular ROS generation. Cells were treated with compounds (respective IC50 values for each compound for 24 h), and intracellular ROS levels were determined in the human cancer cell line MCF-7 by flow cytometry using dichloro-fluorescein diacetate (DCFH2-DA). * p < 0.05 versus control cells (Ctrl). The data represent the means ± S.D. of at least three experiments with triplicate samples.

[6] = tested on: MCF-7 cells; assay: MTT cytotoxicity assay on MCF-7 cells; type: cell-based, human; details: for IC50: Homo sapiens, MCF7, MTT, 48 h incubation, IC50 ± SD, three experiments in triplicate; for Selectivity Index (SI): SI = IC50 on MCF-10 cells/IC50 on MCF-7 cells
Protocol: as §1, §2, §3

[7] = tested on: MCF-10 cells; set-up: method as in PMID 25412045; details: reference drug; cited from earlier work
[8] = tested on: human topoisomerase II; assay: TOP2 DNA relaxation / plasmid linearization assay; type: biochemical; details: 20 μM
Protocol: The ability to relax DNA conformations is a central function of topoisomerase enzymes. Several studies have associated some proapoptotic compounds with the ability to inhibit topoisomerase enzymes. The ability of the selected compounds to inhibit TOP1 or TOP2 activity was determined. In this experiment, daunorubicin was used as a positive control for TOP1/2 inhibition, as previously reported. […] It is important to note the potential for cardiotoxicity associated with some TOP2 inhibitors, which highlights the relevance of assessing compound 14c’s interaction with TOP2B. […] Future studies should include assays to evaluate the specific activity of 14c against both TOP2A and TOP2B to provide a more comprehensive safety profile, as isoform-selective TOP2 inhibitors may offer a therapeutic advantage by reducing adverse effects.
Topoisomerase II-mediated DNA cleavage was assessed using a plasmid linearization assay adapted from previously described methods. Supercoiled plasmid DNA (200 ng final concentration) was incubated with purified human topoisomerase II (10 U) in the presence or absence of test agents or a positive control. Reactions were carried out in a total volume of 20 μL, composed of 2 μL of 10× topoisomerase II reaction buffer, an appropriate volume of compound or control, and nuclease-free water. ATP (final concentration adjusted from a 20 mM stock) was freshly added to the reaction buffer immediately prior to use. Reactions were initiated by the addition of topoisomerase II and incubated at 37 °C for 30 min. To terminate the reactions, 2 μL of 10% SDS was added directly to the tubes while still in the 37 °C water bath, followed by the addition of 1.5 μL of 250 mM tetrasodium EDTA (pH 8.0) and 2 μL of proteinase K solution (0.8 mg/mL). […]
Figure 7 The effect of sesquiterpene aryl esters on TOP1- and TOP2-induced DNA relaxation was assessed. (A) The TOP1 inhibition assay evaluated the compounds (10c, 11c, 12c, 13c, and 14c) at a concentration of 20 μM in a DNA relaxation assay. […]

| Structure (SMILES) | mitochondrial membrane permeability [2] | cytotoxicity of the base sesquiterpene system ([1]; as previously reported by our group) | caspases-3/7 activity [3] | IC50 [4] [µM] | intracellular ROS levels (DCF fluorescence) [5] | IC50 [6] [µM] | Selectivity Index (SI) [6] | IC50 [7] [µM] | IC50 ([1]; reference drug) [µM] | inhibition of TOP2-induced DNA relaxation [8] |
| --- | --- | --- | --- | --- | --- | --- | --- | --- | --- | --- |
| CC1=CC[C@H]2C(C)(C)CCC[C@]2(C)[C@H]1CO [(-)-drimenol] | – | inactive | – | – | – | – | – | – | – | – |
| COc1cccc2c1C(=O)c1c(O)c3c(c(O)c1C2=O)C[C@@](O)(C(C)=O)C[C@@H]3O[C@H]1C[C@H](N)[C@H](O)[C@H](C)O1 [Daunorubicin, reference compound] | – | – | – | – | – | – | 28 | 9.32 ± 1.01 | 0.33 ± 0.02 | modified the TOP2-induced DNA relaxation pattern |

Second part, led by results:

| mitochondrial membrane permeability [2] | Structure (SMILES) | cytotoxicity of the base sesquiterpene system ([1]; as previously reported by our group) | caspases-3/7 activity [3] | IC50 [4] [µM] | intracellular ROS levels (DCF fluorescence) [5] | IC50 [6] [µM] | Selectivity Index (SI) [6] | IC50 [7] [µM] | IC50 ([1]; reference drug) [µM] | inhibition of TOP2-induced DNA relaxation [8] |
| --- | --- | --- | --- | --- | --- | --- | --- | --- | --- | --- |
| did not increase | COc1ccc([C@@H](O)[C@H]2C(C)=CCC3C(C)(C)CCC[C@@]32C)cc1OC (stereo partly drawn) [Compound 10c, (1S)-(3,4-Dimethoxyphenyl)((1S,8aS)-2,5,5,8a-tetramethyl-1,4,4a,5,6,7,8,8a-octahydronaphthalen-1-yl) methanol] | – | considerably enhanced | 248 ± 42.3 | significantly increased | 25.1 ± 2.2 | 9.9 | – | – | – |
| did not increase | COc1ccc(C[C@H]2C(C)=CCC3C(C)(C)CCC[C@@]32C)cc1OC (stereo partly drawn) [Compound 11c, (4aS,5S)-5-(3,4-Dimethoxybenzyl)-1,1,4a,6-tetramethyl-1,2,3,4,4a,5,8,8a-octahydronaphthalenene] | – | considerably enhanced | 87.7 ± 17.8 | significantly increased; also recorded: most effective | 13.5 ± 1.8 | 6.5 | – | – | – |
| did not increase | COc1ccc(C(=O)[C@H]2C(C)=CCC3C(C)(C)CCC[C@@]32C)cc1OC (stereo partly drawn) [Compound 12c, (3,4-Dimethoxyphenyl)((1S,8aS)-2,5,5,8a-tetramethyl-1,4,4a,5,6,7,8,8a-octahydronaphthalen-1-yl)methanone] | – | considerably enhanced | 131 ± 29.3 | significantly increased | 30.1 ± 6.6 | 4.3 | – | – | – |
